According to EP4635500A1, “THERAPEUTIC AGENT FOR BACTERIAL INFECTION” (Sumitomo Pharma Co., Ltd., priority 2022, dated 2024):
Where two headings read alike, the source gives them in different places.

Assays:
[1] = test system: 53 CRE and CPE strains; assay: MICrange, MIC50, MIC80, MIC90 for 53 bacterial isolates (Example 5, Table 5); format: cell-based; details: 53 bacterial isolates
[2] = test system: Enterobacterales; assay: MIC, broth microdilution, CDC/FDA Antibiotic Resistance Isolate Bank (Example 7, Tables 8, 11, 12); format: cell-based; details: for MIC: read-out: MIC

C[C@H]1COc2c(N3CCN(C)CC3)c(F)cc3c(=O)c(C(=O)O)cn1c23 [Levofloxacin, levofloxacin]
0.5 µg/mL: MIC ([2]; Enterobacter cloacae, KUB No. 5762, AR Bank # 366) | MIC ([2]; Klebsiella oxytoca, KUB No. 5776, AR Bank # 380) | MIC ([2]; Klebsiella pneumoniae, KUB No. 5531, AR Bank# 34) | MIC ([2]; Klebsiella pneumoniae, Klebsiella pneumoniae KUB No. 5809, AR Bank #504) | MIC ([2]; Raoultella ornithinolvtica, KUB No. 5631, AR Bank # 134) | MIC ([2]; Serratia marcescens, KUB No. 5619, AR Bank # 122) | MIC ([2]; Serratia marcescens, KUB No. 5621, AR Bank # 124) | MIC ([2]; Serratia marcescens, KUB No. 5628, AR Bank # 131) | MIC ([2]; Serratia marcescens, Serratia marcescens KUB No. 5825, AR Bank #520)
> 64 µg/mL: MIC ([2]; Citrobacter freundii, KUB No. 5654, AR Bank # 157) | MIC ([2]; Enterobacter cloacae, Enterobacter cloacae KUB No. 5792, AR Bank #448) | MIC ([2]; Klebsiella pneumoniae, KUB No. 5546, AR Bank# 49) | MIC ([2]; Klebsiella pneumoniae, KUB No. 5603, AR Bank # 106) | MIC ([2]; Klebsiella pneumoniae, KUB No. 5606, AR Bank # 109) | MIC ([2]; Klebsiella pneumoniae, KUB No. 5635, AR Bank # 138) | MIC ([2]; Klebsiella pneumoniae, KUB No. 5650, AR Bank # 153) | MIC ([2]; Klebsiella pneumoniae, Klebsiella pneumoniae KUB No. 5812, AR Bank #507) | MIC ([2]; Proteus mirabilis, KUB No. 5652, AR Bank # 155) | MIC90 ([2]; carbapenemase-producing Enterobacterales, Metallo-β-lactamase (N = 47), read-out: MIC90)
64 µg/mL: MIC80 ([1]; read-out: MIC80) | MIC90 ([1]; read-out: MIC90) | MIC ([2]; Enterobacter cloacae, KUB No. 5535, AR Bank# 38) | MIC ([2]; Escherichia coli, Escherichia coli KUB No. 5796, AR Bank #452) | MIC ([2]; Escherichia coli, KUB No. 5634, AR Bank # 137) | MIC ([2]; Klebsiella pnemnonine, KUB No. 5758, AR Bank # 362) | MIC ([2]; Klebsiella pneumoniae, KUB No. 55, AR Bank# 47) | MIC ([2]; Klebsiella pneumoniae, KUB No. 5604, AR Bank # 107) | MIC ([2]; Klebsiella pneumoniae, KUB No. 5617, AR Bank # 120) | MIC ([2]; Klebsiella pneumoniae, KUB No. 5622, AR Bank # 125) | MIC ([2]; Klebsiella pneumoniae, KUB No. 5626, AR Bank # 129) | MIC ([2]; Klebsiella pneumoniae, KUB No. 5632, AR Bank # 135) | MIC ([2]; Klebsiella pneumoniae, KUB No. 5640, AR Bank # 143) | MIC ([2]; Klebsiella pneumoniae, KUB No. 5643, AR Bank # 146) | MIC ([2]; Klebsiella pneumoniae, KUB No. 5645, AR Bank # 148) | MIC ([2]; Klebsiella pneumoniae, KUB No. 5757, AR Bank # 361) | MIC ([2]; Klebsiella pneumoniae, KUB No. 5759, AR Bank # 363) | MIC ([2]; Klebsiella pneumoniae, KUB No. 5760, AR Bank # 364) | MIC ([2]; Klebsiella pneumoniae, Klebsiella pneumoniae KUB No. 5784, AR Bank #438) | MIC ([2]; Klebsiella pneumoniae, Klebsiella pneumoniae KUB No. 5797, AR Bank #453) | MIC ([2]; Klebsiella pneumoniae, Klebsiella pneumoniae KUB No. 5830, AR Bank #525) | MIC ([2]; Morganella morganii, KUB No. 5630, AR Bank # 133)
0.12 µg/mL: MIC ([2]; Enterobacter cloacae, Enterobacter cloacae complex, KUB No. 5661, AR Bank # 164) | MIC ([2]; Enterobacter cloacae, KUB No. 5778, AR Bank # 432) | MIC ([2]; Escherichia coli, Escherichia coli KUB No. 5794, AR Bank #450) | MIC ([2]; Klebsiella aerogenes, Enterobacter aerogenes, KUB No. 5658, AR Bank # 161) | MIC ([2]; Klebsiella oxytoca, KUB No. 5771, AR Bank # 375) | MIC ([2]; Klebsiella pneumoniae, KUB No. 5623, AR Bank # 126) | MIC ([2]; Klebsiella pneumoniae, KUB No. 5657, AR Bank # 160) | MIC ([2]; Morganella morganii, Morganella morganii KUB No. 5824, AR Bank #519) | MIC ([2]; Serratia marcescens, KUB No. 5618, AR Bank # 121) | MIC ([2]; Serratia marcescens, KUB No. 5627, AR Bank # 130)
0.06 µg/mL: MIC ([2]; Enterobacter cloacae, Enterobacter cloacae group, KUB No. 5629, AR Bank # 132) | MIC ([2]; Enterobacter cloacae, KUB No. 5557, AR Bank# 60) | MIC ([2]; Escherichia coli, KUB No. 5764, AR Bank # 368) | MIC ([2]; Escherichia coli, KUB No. 5765, AR Bank # 369) | MIC ([2]; Klebsiella oxytoca, KUB No. 5644, AR Bank # 147)
8 µg/mL: MIC ([2]; Enterobacter cloacae, Enterobacter cloacae KUB No. 5808, AR Bank #502) | MIC ([2]; Enterobacter cloacae, KUB No. 5547, AR Bank# 50) | MIC ([2]; Escherichia coli, KUB No. 5646, AR Bank # 149) | MIC ([2]; Escherichia coli, KUB No. 5774, AR Bank # 378) | MIC ([2]; Klebsiella pneumoniae, KUB No. 5536, AR Bank# 39) | MIC ([2]; Klebsiella pneumoniae, KUB No. 5538, AR Bank# 41) | MIC ([2]; Klebsiella pneumoniae, KUB No. 5541, AR Bank# 44) | MIC ([2]; Klebsiella pneumoniae, KUB No. 5636, AR Bank # 139) | MIC ([2]; Klebsiella pneumoniae, KUB No. 5638, AR Bank # 141) | MIC ([2]; Klebsiella pneumoniae, KUB No. 5639, AR Bank # 142) | MIC ([2]; Morganella morganii, KUB No. 5554, AR Bank# 57) | MIC ([2]; Proteus mirabilis, KUB No. 5556, AR Bank# 59)
32 µg/mL: MIC ([2]; Enterobacter cloacae, KUB No. 5550, AR Bank# 53) | MIC ([2]; Enterobacter cloacae, KUB No. 5660, AR Bank # 163) | MIC ([2]; Escherichia coli, Escherichia coli KUB No. 5783, AR Bank #437) | MIC ([2]; Escherichia coli, Escherichia coli KUB No. 5795, AR Bank #451) | MIC ([2]; Escherichia coli, KUB No. 5611, AR Bank # 114) | MIC ([2]; Escherichia coli, KUB No. 5615, AR Bank # 118) | MIC ([2]; Escherichia coli, KUB No. 5616, AR Bank # 119) | MIC ([2]; Escherichia coli, KUB No. 5625, AR Bank # 128) | MIC ([2]; Escherichia coli, KUB No. 5647, AR Bank # 150) | MIC ([2]; Escherichia coli, KUB No. 5648, AR Bank # 151) | MIC ([2]; Escherichia coli, KUB No. 5659, AR Bank # 162) | MIC ([2]; Escherichia coli, KUB No. 5769, AR Bank # 373) | MIC ([2]; Escherichia coli, KUB No. 5770, AR Bank # 374) | MIC ([2]; Escherichia coli, KUB No. 5779, AR Bank # 433) | MIC ([2]; Escherichia coli, KUB No. 5781, AR Bank # 435) | MIC ([2]; Escherichia, KUB No. 57, AR Bank # 436 (row cut off)) | MIC ([2]; Klebsiella pneumoniae, KUB No. 5537, AR Bank# 40) | MIC ([2]; Klebsiella pneumoniae, KUB No. 5543, AR Bank# 46) | MIC ([2]; Klebsiella pneumoniae, KUB No. 5612, AR Bank # 115) | MIC ([2]; Klebsiella pneumoniae, KUB No. 5642, AR Bank # 145) | MIC ([2]; Klebsiella pneumoniae, KUB No. 5649, AR Bank # 152) | MIC ([2]; Klebsiella pneumoniae, Klebsiella pneumoniae KUB No. 5827, AR Bank #522) | MIC ([2]; Klebsiella pneumoniae, Klebsiella pneumoniae KUB No. 5829, AR Bank #524) | MIC ([2]; Salmonella enterica, Salmonella Senftenberg, KUB No. 5624, AR Bank # 127) | MIC50 ([2]; carbapenemase-producing Enterobacterales, Metallo-β-lactamase (N = 47), read-out: MIC50)
0.25 µg/mL: MIC ([2]; Serratia marcescens, KUB No. 5596, AR Bank # 99) | MIC ([2]; Serratia marcescens, KUB No. 5620, AR Bank # 123)
16 µg/mL: MIC50 ([1]; read-out: MIC50) | MIC ([2]; Enterobacter clooreae, KUB No. 5633, AR Bank # 136) | MIC ([2]; Escherichia coli, Escherichia coli KUB No. 5803, AR Bank #861) | MIC ([2]; Escherichia coli, KUB No. 5601, AR Bank # 104) | MIC ([2]; Escherichia coli, KUB No. 5766, AR Bank # 370) | MIC ([2]; Escherichia coli, KUB No. 5767, AR Bank # 371) | MIC ([2]; Escherichia coli, KUB No. 5768, AR Bank # 372) | MIC ([2]; Escherichia coli, KUB No. 5780, AR Bank # 434) | MIC ([2]; Klebsiella ozaenae, KUB No. 5548, AR Bank# 51) | MIC ([2]; Klebsiella pneumoniae, KUB No. 5609, AR Bank # 112) | MIC ([2]; Klebsiella pneumoniae, KUB No. 5610, AR Bank # 113) | MIC ([2]; Klebsiella pneumoniae, KUB No. 5637, AR Bank # 140) | MIC ([2]; Klebsiella pneumoniae, KUB No. 5655, AR Bank # 158) | MIC ([2]; Klebsiella pneumoniae, KUB No. 5772, AR Bank # 376) | MIC ([2]; Proteus mirabilis, KUB No. 5773, AR Bank # 377) | MIC ([2]; Serratia marcescens, Serratia marcescens KUB No. 5826, AR Bank #521)
2 µg/mL: MIC ([2]; Klebsiella pneumoniae, KUB No. 5540, AR Bank# 43) | MIC ([2]; Kluyvera ascorbata, KUB No. 5641, AR Bank # 144) | MIC ([2]; Proteus mirabilis, KUB No. 5653, AR Bank # 156) | MIC ([2]; Proteus mirabilis, KUB No. 5656, AR Bank # 159)
1 µg/mL: MIC ([2]; Enterobacter cloacae, Enterobacter cloacae KUB No. 5807, AR Bank #501) | MIC ([2]; Enterobacter cloacae, KUB No. 5529, AR Bank# 32) | MIC ([2]; Enterobacter cloacae, KUB No. 5763, AR Bank # 367) | MIC ([2]; Enterobacter cloaccae, KUB No. 5651, AR Bank # 154) | MIC ([2]; Klebsiella aerogenes, Enterobacter aerogenes, KUB No. 5777, AR Bank # 431) | MIC ([2]; Klebsiella pneumoniae, Klebsiella pneumoniae KUB No. 5810, AR Bank #505)
4 µg/mL: MIC ([2]; Enterobacter cloacae, KUB No. 5761, AR Bank # 365) | MIC ([2]; Klebsiella pneumoniae, KUB No. 5614, AR Bank # 117) | MIC ([2]; Klebsiella pneumoniae, Klebsiella pneumoniae KUB No. 5811, AR Bank #506) | MIC ([2]; Klebsiella pneumoniae, Klebsiella pneumoniae KUB No. 5828, AR Bank #523) | MIC ([2]; Proteus mirabilis, KUB No. 5775, AR Bank # 379)
